From patent US10137106B2, “Compositions and methods to treat niemann-pick disease” (Blanchette Rockefeller Neurosciences Institute, Inc., priority 2014, dated 2018)

Legend:
Assay type in all cases: cell-based
PKC α [1] = target: T1, PKC α (Homo sapiens, UniProt P17252); experiment: PKC α activation in SH-SY5Y cells (cytosol/membrane fractions, isoform-specific antibodies); conditions: 0.27 nM, 5-60 min (FIG. 3)
Procedure: Three independent experiments were performed for each sample.
(§1) The homogenate was centrifuged at 100,000×g for 15 min at 4° C. to obtain the cytosolic fraction (supernatant) and membrane (pellet). […] The separated protein was then transferred to a nitrocellulose membrane.

PKC α [2] = target: T1, PKC α; experiment: PKC α activation (membrane translocation, immunoblot) in primary human neurons; parameters: host or cells: primary human cortical neurons
Procedure: as §1

PKC ε [3] = target: T2, PKC ε (Homo sapiens, UniProt Q02156); experiment: PKC ε activation in SH-SY5Y cells (cytosol/membrane fractions, isoform-specific antibodies); conditions: 0.27 nM, 5-60 min (FIG. 3)
T2 sequence (Q02156 1-737): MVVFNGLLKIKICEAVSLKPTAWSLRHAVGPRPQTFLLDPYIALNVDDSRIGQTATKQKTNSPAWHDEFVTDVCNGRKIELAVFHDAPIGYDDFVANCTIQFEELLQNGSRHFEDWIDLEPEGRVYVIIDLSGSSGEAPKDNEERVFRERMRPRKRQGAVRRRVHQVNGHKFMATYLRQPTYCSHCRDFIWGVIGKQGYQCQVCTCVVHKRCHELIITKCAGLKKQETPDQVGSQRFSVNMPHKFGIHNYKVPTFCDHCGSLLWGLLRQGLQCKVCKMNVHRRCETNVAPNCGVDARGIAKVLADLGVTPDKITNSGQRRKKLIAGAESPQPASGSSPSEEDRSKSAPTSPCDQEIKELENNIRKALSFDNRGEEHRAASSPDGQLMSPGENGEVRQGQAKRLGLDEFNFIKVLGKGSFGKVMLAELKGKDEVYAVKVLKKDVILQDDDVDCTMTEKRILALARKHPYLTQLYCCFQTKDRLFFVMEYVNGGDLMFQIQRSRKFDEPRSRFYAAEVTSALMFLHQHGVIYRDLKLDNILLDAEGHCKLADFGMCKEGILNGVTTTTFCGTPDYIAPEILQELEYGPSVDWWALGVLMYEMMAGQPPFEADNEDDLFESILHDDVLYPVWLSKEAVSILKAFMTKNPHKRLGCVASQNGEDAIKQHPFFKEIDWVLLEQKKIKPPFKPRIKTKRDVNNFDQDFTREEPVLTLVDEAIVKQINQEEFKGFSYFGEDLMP
Procedure: PKC isozyme activation by bryostatin-1 at 0.27 nM in SH-SY5Y cells was evaluated. SH-SY5Y cells are human-derived cell line and are often used as in vitro models of neuronal function and differentiation. Cells were treated with bryostatin-1 (0.27 nM) for 0, 5, 15, 30 and 60 min. Samples were fractionated into cytosol and membrane fractions and analyzed with PKC isoform-specific antibodies. Three independent experiments were performed for each sample.
Cell culture and treatments: Human SH-SY5Y neuroblastoma cells (ATCC) were cultured in 45% F12K, 45% DMEM and 10% FBS.
Cell lysis and Western blot analysis: Cells were harvested in homogenizing buffer (HB) containing 10 mM Tris-Cl (pH 7.4), 1 mM PMSF (phenylmethylsulfonylfluoride), 1 mM EGTA, 1 mM EDTA, 50 mM NaF and 20 μM leupeptin, and were lysed by sonication. The homogenate was centrifuged at 100,000×g for 15 min at 4° C. to obtain the cytosolic fraction (supernatant) and membrane (pellet). […] Protein concentration was measured using the Coomassie Plus (Bradford) Protein Assay kit (Pierce, Rockford, Ill., USA). Following quantification, 20 μg of protein from each sample was subjected to SDS-PAGE analysis in a 4-20% gradient Tris-Glycine polyacrylamide gel (Invitrogen, Carlsbad, Calif., USA). […] The blot was imaged in a ImageQuant RT-ECL (GE Life Sciences, Piscataway, N.J.) and densitometric quantification was performed using IMAL software. […]

PKC ε [4] = target: T2, PKC ε; experiment: PKC ε activation (membrane translocation, immunoblot) in primary human neurons; parameters: host or cells: primary human cortical neurons
Procedure: PKC isozyme activation by bryostatin-1 at various concentrations in primary human neurons was evaluated. One month old primary human neurons were treated with 0 nM, 0.060 nM, 0.125 nM, 0.25 nM, 0.5 nM and 1.0 nM bryostatin 1 for 24 hr. Neurons were separated into soluble and membrane fractions and immunoblotted against PKC α and PKC ε. PKC activation was measured as the percentage of total protein in the membrane and reported as percentage of control. PKC staining levels were measured densitometrically. Data are represented as mean±SE of three independent experiments (Students t-test, *P<0.05 and **P<0.005).
PKC isozyme activation by bryostatin-1 at 0.25 nM in primary human neurons was evaluated. One month old primary human neurons were treated with ethanol (C), bryostatin 1 (0.25 nM) for 1 hr, 4 hr and 24 hr. Neurons were separated into soluble (S) and membrane (P) fractions and immunoblotted against PKC α, PKC ε and PKC δ. PKC activation was measured as the percentage of total protein in the membrane and reported as percentage of control. PKC staining levels were measured densitometrically.
Culture of primary human cortical neurons: Human primary neurons (ScienCell Research Laboratories, Carlsbad, Calif., USA) were plated on poly-L-lysine coated plates and were maintained in neuronal medium (ScienCell Research Laboratories, Carlsbad, Calif., USA) supplemented with the neuronal growth supplement (NGS, ScienCell Research Laboratories, Carlsbad, Calif., USA). For maintenance of neurons, half of the media was changed every 3 days. Fresh activators were added with every media change.
Cell lysis and Western blot analysis: Cells were harvested in homogenizing buffer (HB) containing 10 mM Tris-Cl (pH 7.4), 1 mM PMSF (phenylmethylsulfonylfluoride), 1 mM EGTA, 1 mM EDTA, 50 mM NaF and 20 μM leupeptin, and were lysed by sonication. The homogenate was centrifuged at 100,000×g for 15 min at 4° C. to obtain the cytosolic fraction (supernatant) and membrane (pellet). The pellet was resuspended in the HB by sonication. Protein concentration was measured using the Coomassie Plus (Bradford) Protein Assay kit (Pierce, Rockford, Ill., USA). Following quantification, 20 μg of protein from each sample was subjected to SDS-PAGE analysis in a 4-20% gradient Tris-Glycine polyacrylamide gel (Invitrogen, Carlsbad, Calif., USA). The separated protein was then transferred to a nitrocellulose membrane. The membrane was blocked with BSA and incubated with primary antibody overnight at 4° C. […] The blot was imaged in a ImageQuant RT-ECL (GE Life Sciences, Piscataway, N.J.) and densitometric quantification was performed using IMAL software. For quantifying expression of a protein, the densitometric value for the protein of interest was normalized against beta-actin (loading control).

CCC/C=C/C=C/C(=O)O[C@H]1/C(=C/C(=O)OC)C[C@H]2C[C@H]([C@@H](C)O)OC(=O)C[C@H](O)C[C@@H]3C[C@H](OC(C)=O)C(C)(C)[C@](O)(C[C@@H]4C/C(=C/C(=O)OC)C[C@H](/C=C/C(C)(C)[C@]1(O)O2)O4)O3 [bryostatin-1]
PKC α activation (PKC α [1]): activated both PKC ε and PKC α | PKC α activation (percentage of total protein in the membrane, percentage of control) (PKC α [2]; 0.060-1.0 nM, 24 hr (FIG. 1)): activated both PKC ε and PKC α | PKC α activation at about 1 nM (PKC α [2]; about 1 nM, 24 hr): potent activation of both PKC ε and PKC α | PKC ε activation (PKC ε [3]): activated both PKC ε and PKC α | PKC-ε activation, time course (PKC ε [4]; 0.25 nM, 1 hr, 4 hr and 24 hr (FIG. 2B)): induced PKC-ε activation | PKC ε activation (percentage of total protein in the membrane, percentage of control) (PKC ε [4]; 0.060-1.0 nM, 24 hr (FIG. 1)): activated both PKC ε and PKC α | PKC ε activation at about 1 nM (PKC ε [4]; about 1 nM, 24 hr): potent activation of both PKC ε and PKC α | PKC ε activation at low concentrations (PKC ε [4]; low concentrations, 24 hr): potent PKC ε activation
